# Laboratory results from patent US20120135089A1, “E3 LIGASE INHIBITORS” (priority 2009, published 2012).
# Legend:
# [1] = system: Mdm2 and p53 levels; assay: Western blot of Mdm2 and p53 protein levels in cell lines; format: cell-based, human; details: 6 hours; for Mdm2 and p53 levels: U2OS, RKO, HCT116 (p53 wild-type), 5 μg/ml; for p53 levels in RKO and RKO-E6 cells: isogenic RKO and RKO-E6 (HPV-E6) cells; for levels of endogenous and ectopically expressed Mdm2: p53-null H1299 cells
# Experimental: (§1) Cells were plated in 384-well format and treated with MG132 (2 hours) or cycloheximide (30 minutes). Steadylite luminescence buffer (PerkinElmer) was added and the relative luminescence levels determined on a Victor3 Plate Reader. Each graph represents the median of 5 replicates normalized to a no treatment control, and one standard deviation is shown. […] The graphs and EC50 values were determined using Graphpad PRISM®. […] U2OS, RKO, and HCT116 cells (p53 wild-type) were incubated with 5 μg/ml (14 μM) of MEL23, 5 μg/ml (15 μM) of MEL24, or 10 μM of MG132 for 6 hours. Cells were lysed and analyzed by Western blotting using anti-Mdm2, anti-p53, and anti-eIF4E antibodies. NT indicates a no treatment control. […] MCF7 cells (p53 wild-type) were incubated with 30 μg/ml (51 μM) etoposide alone or in combination with 50 μM AlIn or 5 μg/ml (14 μM) MEL23, or 5 μg/ml (15 μM) MEL24 for 16 hours. Cells were lysed and analyzed by Western blotting using anti-MDMX and anti-actin antibodies.
# (§2) H1229 cells were transfected with Mdm2-Flag or remained untransfected. Cells were treated with 5 μg/ml (14 μM) MEL23, 5 μg/ml (15 μM) MEL24, 10 μM MG132, or 1 μg/ml of doxorubicin for 6 hours. Cells were lysed and analyzed by Western blotting using anti-Mdm2 and anti-actin antibodies. The lower band indicated with a star seen with the Mdm2 antibody is a non-specific band. NT indicates a no treatment control. […] RKO and RK0-E6 cells were treated with 5 μg/ml (14 μM) MEL23, 5 μg/ml (15 μM) MEL24, 10 μM MG132, 0.5 μg/ml doxorubicin, 0.5 μg/ml camptothecin or 25 μg/ml Etoposide for 6 hours. Cells were lysed and analyzed by Western blotting using anti-Mdm2, anti-p53, and anti-actin antibodies. The lower band indicated with a star seen with the anti-Mdm2 antibody is a non-specific band. […] RKO cells were treated with 5 μg/ml (14 μM) MEL23, 5 μg/ml (15 μM) MEL24, 10 μM MG132 or 2 μg/ml doxorubicin for 6 hours. Cells were lysed and analyzed by Western blotting using anti-Mdm2, anti-p53, anti-phospho-Ser15 p53, and anti-eiF4E antibodies.
# (§3) Cells were seeded and treated with the indicated compound(s). Cells were lysed after each time point in a buffer of 50 mM TrisHCl pH 7.5, 200 mM NaCl, 0.5% NP-40, and 1 complete mini EDTA-free protease inhibitor cocktail tablet per 10 mL of buffer (Roche, Cat. No. 8360170). Protein content was quantified using a Biorad protein assay reagent (Bio-Rad Laboratories, Hercules, Calif., Cat. No. 500-0006). SDS sample buffer was added to the samples, and the mixture was boiled for 5 minutes. Equal amounts of protein were resolved on a 1D SDS-PAGE gel. Following separation proteins were transferred to nitrocellulose membrane, blocked with 5% milk, and then incubated with primary antibody overnight at 4° C. The membrane was incubated with secondary-HRP antibody for 45 minutes at room temperature and developed with SuperSignal West Pico Substrate (Pierce, Rockford, Ill., Cat. No. 34080).
# Cells were lysed and analyzed by Western blotting using anti-Mdm2, anti-p53, and anti-actin antibodies. The lower band seen with the Mdm2 antibody is a non-specific band. NT indicates no treatment control.
# Referring now to FIG. 28e, endogenous Mdm2 and p53 protein levels with MEL17 treatment are shown. Briefly, U2OS, RKO, and HCT116 cells (p53 wild-type) were incubated with 5 μg/ml of MEL17 or 10 μM of MG132 for 6 hours. Cells were lysed and analyzed by Western blotting using anti-Mdm2, anti-p53, and anti-actin antibodies. The lower band seen with the Mdm2 antibody is a non-specific band.
# [2] = system: Mdm2-ubiquitin conjugates; assay: cell-based Mdm2 ubiquitination assay (HA-ubiquitin immunoprecipitation); design: species or system human; details: Mdm2-luciferase cells, with 10 μM MG132
# Experimental: To obtain the results shown in FIG. 4A, Mdm2-luciferase cells were transfected with ubiquitin-HA and treated 8 hours later with 10 μg/ml (28 μM) MEL23, 10 μg/ml (31 μM) MEL24, or a DMSO control. After 16 hours, cells were additionally treated with 10 μM MG132 or a DMSO control. After 3 hours, cells were lysed and immunoprecipitated for 3 hours with anti-HA affinity matrix. Total lysates and immunoprecipitated samples were analyzed by Western blotting using anti-Mdm2 antibody. NT indicates a no treatment control. […] After 8 hours, cells were treated with 10 μg/ml (28 μM) MEL23, 10 μg/ml (31 μM) MEL24, or a DMSO control. After 16 hours, cells were additionally treated with 10 μM MG132 or a DMSO control. After 3 hours cells were lysed and analyzed by Western blotting using anti-p53 antibody. […]
# The Mdm2-luciferase cell line was transfected with HA-ubiquitin and pre-treated with 10 μg/ml MEL23 or MEL24, followed by 10 μM MG132. […] Cells lysates were immunoprecipitated with an anti-HA antibody and analyzed by Western blotting. […]
# Briefly, Mdm2-luciferase cells were transfected with HA-ubiquitin. […] Input lysates and immunoprecipitated samples were analyzed by Western blotting using anti-Mdm2 antibody.
# Briefly, Mdm2-luciferase cells were transfected with HA-ubiquitin. […] Input lysates and immunoprecipitated samples were analyzed by Western blotting using anti-Mdm2 antibody. […]
# [3] = system: MdmX; assay: etoposide-induced MdmX degradation in MCF7 cells (Western blot); format: cell-based, human; details: etoposide 30 μg/ml, 16 hours
# Experimental: as §1, §3
# [4] = system: p53-Ser15 phosphorylation; assay: p53-Ser15 phosphorylation in RKO cells (Western blot); format: cell-based, human; details: 6 hours
# Experimental: as §2, §3
SMILES,Mdm2 and p53 levels [1],p53 levels in RKO and RKO-E6 cells [1],levels of endogenous and ectopically expressed Mdm2 [1],Mdm2 ubiquitination in cells (Mdm2-ubiquitin conjugates) [2],etoposide-induced MdmX degradation [3],phosphorylation of p53 at serine-15 [4]
CCCCn1c(=O)[nH]c(O)c(C2NCCc3c2[nH]c2ccccc32)c1=O (stereo not drawn) [MEL23],increased,only increased levels of p53 in RKO cells,increased after treatment,significantly less Mdm2-ubiquitin conjugates were immunoprecipitated,degradation could be prevented,lack of phosphorylation of p53 at serine-15
Cn1c(O)c(C2NCCc3c2[nH]c2ccccc32)c(=O)n(C)c1=O (stereo not drawn) [MEL24],increased,only increased levels of p53 in RKO cells,increased after treatment,significantly less Mdm2-ubiquitin conjugates were immunoprecipitated,degradation could be prevented,lack of phosphorylation of p53 at serine-15
